# Experimental data: the NIST ThermoML archive (doi:10.1016/j.fluid.2009.04.006)
# Several values for one entry are separate records, joined by “and”; a condition that tells them apart may be missing. Equal entries are not always repeated. Numbers after ± are expanded uncertainties.
# Settings: Liquid, Closed cell (Static) method
structure (smiles),measurement,setting,value
"NCCOCCOCCN [1,2-bis(2-aminoethoxy)ethane]",vapor or sublimation pressure,292.92 K,0.00358 ± 0.00027 kPa
same,vapor or sublimation pressure,302.88 K,0.00757 ± 0.00054 kPa
same,vapor or sublimation pressure,312.87 K,0.0156 ± 0.0011 kPa
same,vapor or sublimation pressure,322.91 K,0.0297 ± 0.0019 kPa
same,vapor or sublimation pressure,332.89 K,0.0545 ± 0.0034 kPa
same,vapor or sublimation pressure,342.89 K,0.104 ± 0.007 kPa
same,vapor or sublimation pressure,353.02 K,0.184 ± 0.011 kPa
OCCNCc1ccccc1 [2-benzylaminoethanol],vapor or sublimation pressure,292.82 K,0.000782 ± 0.00011 kPa
same,vapor or sublimation pressure,312.85 K,0.0052 ± 0.00038 kPa
same,vapor or sublimation pressure,332.88 K,0.0271 ± 0.0018 kPa
same,vapor or sublimation pressure,332.89 K,0.027 ± 0.0018 kPa
same,vapor or sublimation pressure,352.92 K,0.114 ± 0.007 kPa
same,vapor or sublimation pressure,362.91 K,0.239 ± 0.015 kPa and 0.231 ± 0.014 kPa
CN1CCOCC1 [N-methylmorpholine],vapor or sublimation pressure,273.18 K,6.9 ± 0.41 kPa
same,vapor or sublimation pressure,283.12 K,12.94 ± 0.78 kPa and 12.93 ± 0.78 kPa
same,vapor or sublimation pressure,293.06 K,23.06 ± 1.4 kPa
same,vapor or sublimation pressure,303.04 K,39.34 ± 2.4 kPa
same,vapor or sublimation pressure,313.05 K,64.46 ± 3.9 kPa
same,vapor or sublimation pressure,323.08 K,101.73 ± 6.1 kPa
same,vapor or sublimation pressure,333.07 K,155.32 ± 9.3 kPa
same,vapor or sublimation pressure,343.08 K,230.31 ± 14 kPa
same,vapor or sublimation pressure,353.08 K,332.76 ± 20 kPa
"CN(C)CCN(C)C [N,N,N',N'-tetramethyl-1,2-diaminoethane]",vapor or sublimation pressure,294.75 K,1.766 ± 0.11 kPa
same,vapor or sublimation pressure,304.74 K,3.055 ± 0.18 kPa
same,vapor or sublimation pressure,314.76 K,5.055 ± 0.3 kPa
same,vapor or sublimation pressure,324.95 K,8.115 ± 0.49 kPa
same,vapor or sublimation pressure,334.99 K,12.53 ± 0.75 kPa
same,vapor or sublimation pressure,344.96 K,19.34 ± 1.2 kPa
same,vapor or sublimation pressure,354.98 K,28.12 ± 1.7 kPa
same,vapor or sublimation pressure,364.97 K,40.04 ± 2.4 kPa
